According to patent publication US20120022142A1, “RNA Interference Mediated Inhibition of Signal Transducer and Activator of Transcription 1 (STAT1) Gene Expression Using Short Interfering Nucleic Acid (siNA)” (Merck Sharp & Dohme Corp., priority 2009, published 2012):
[invAb] = inverted abasic unit; m = 2'-O-methyl; r = 2'-OH (RNA); f = 2'-fluoro

System: TLR3
Assay: TLR3 mediated immunostimulation (OAS1 mRNA increase) in NHBE cells
Type: cell-based, human
Conditions: % increase in OAS1 mRNA, 0.01-100 nM siNA, n = 3 donors
Experimental: NHBE cell were treated as describe above in Example 2 and used for the measurement of endosomal TLR3 mediated immunostimulation, with the inclusion of polyI:C as a positive control for OAS1 mRNA upregulation. For the measurement of membrane bound TLR3 mediated immunostimulation, the NHBE cells were cultured at 1200 cells/per 96 well and siNAs administered in PBS in the absence of a delivery vehicle at (100 nM, 30 nM, 10 nM, 3 nM, 1 nM, 0.3 nM, 0.1 nM, 0.03 nM, 0.01 nM).
Cell surface TLR3 mediated immunostimulation responses were measured by recording the % increase in OAS1 mRNA levels when the NHBE cells were treated with the siNAs in the absence of a delivery vehicle. (% increase in OAS1 mRNA levels relative to the PBS dilutant).
To determine immunostimulation TLR3 mediated % increase in OAS1(immunostimulatory biomarker) mRNA levels, a nine point dose response was measured using 0.01-100 nM concentration of siNA 25368-DC and siNA 25372-DC.
Endosomal TLR3 mediated immuno stimulation was measured by recording the % increase in OAS1 mRNA levels when the NHBE cells were transfected with the siNAs. (% increase in OAS1 mRNA levels relative to the transfection agent control). The TLR3 agonist Poly I:C is used as a positive control for OAS1 mRNA induction.

Row | Substance | Immunostimulation TLR3 mediated OAS1
1 | 25368-DC: STAT1 siNA duplex, human target site 782; modified strands SEQ ID NO: 73 and 74 (chain 1 GUAAAGUCAGAAAUGUGAATT; chain 2 UUCACAUUUCUGACUUUACUU; chain 1: DNA at AGT, 2'-fluoro at CU, [invAb] at 5' end, 3' end, backbone not given here; chain 2: sugars from the 5' end rrrmfmfffffmmffffmfmm, backbone not given here) | No significant effect up to 100 nM
2 | 25372-DC: STAT1 siNA duplex, human target site 968; modified strands SEQ ID NO: 81 and 82 (chain 1 UUGACAAUAAGAGAAAGGATT; chain 2 UCCUUUCUCUUAUUGUCAAUU; chain 1: DNA at AGT, 2'-fluoro at CU, [invAb] at 5' end, 3' end, backbone not given here; chain 2: sugars from the 5' end rrrffffffffmffmffmmmm, backbone not given here) | No significant effect up to 100 nM
